Test results as given in the NIST ThermoML archive (doi:10.1021/je900478c).

Assay: xn = mol fraction of the nth substance listed
Settings: 101 kPa, Liquid; for viscosity: Capillary tube (Ostwald / Ubbelohde) method; for mass density: Vibrating tube method

CCCCOCCOCCO [3,6-dioxa-1-decanol] + O
Settings	mass density, 283.15 K [kg/m3]	mass density, 293.15 K [kg/m3]	mass density, 303.15 K [kg/m3]	mass density, 313.15 K [kg/m3]	mass density, 323.15 K [kg/m3]	viscosity, 283.15 K [mPa·s]	viscosity, 293.15 K [mPa·s]	viscosity, 303.15 K [mPa·s]	viscosity, 313.15 K [mPa·s]	viscosity, 323.15 K [mPa·s]
x1 = 0.00199	1000.2	998.59	995.87	992.68	–	–	–	–	–	–
x1 = 0.003	1000.41	998.79	996.01	992.86	–	–	–	–	–	–
x1 = 0.00498	1001.05	999.2	996.31	993.28	–	–	–	–	–	–
x1 = 0.00617	1001.43	999.48	996.53	993.43	–	–	–	–	–	–
x1 = 0.00706	1001.75	999.68	996.67	993.51	–	–	–	–	–	–
x1 = 0.00794	1002	999.88	996.81	993.62	–	–	–	–	–	–
x1 = 0.00892	1002.32	1000.11	996.95	993.66	–	–	–	–	–	–
x1 = 0.00993	1002.65	1000.34	997.07	993.71	–	–	–	–	–	–
x1 = 0.01492	1004.27	1001.44	997.66	993.62	–	–	–	–	–	–
x1 = 0.02056	1005.74	1002.03	997.51	993.05	–	–	–	–	–	–
x1 = 0.0238	1006.36	1002.2	997.18	992.61	–	–	–	–	–	–
x1 = 0.02697	1006.66	1002.11	997	992.19	–	–	–	–	–	–
x1 = 0.03015	1006.78	1001.94	996.61	991.64	–	–	–	–	–	–
x1 = 0.03953	1006.53	1001.04	995.23	989.79	–	–	–	–	–	–
x1 = 0.06038	1005.13	998.81	992.28	986.16	–	–	–	–	–	–
x1 = 0.07987	1003.42	996.64	989.68	983.24	–	–	–	–	–	–
x1 = 0.1	1001.67	994.55	987.21	979.73	971.95	8.644	5.684	3.974	2.914	2.216
x1 = 0.2	992.63	984.71	976.63	968.47	960.1	12.36	7.986	5.482	3.942	2.943
x1 = 0.2999	985.44	977.27	968.97	960.58	951.9	13.32	8.637	5.93	4.259	3.173
x1 = 0.4	979.51	971.27	962.91	954.51	945.89	13.06	8.55	5.913	4.27	3.195
x1 = 0.5	974.9	966.63	958.27	949.82	941.29	12.36	8.183	5.713	4.161	3.133
x1 = 0.6	971.46	963.17	954.74	946.32	937.75	11.49	7.708	5.442	3.998	3.033
x1 = 0.7	968.77	960.45	952.05	943.62	935.03	10.58	7.203	5.144	3.816	2.918
x1 = 0.7998	966.62	958.25	949.8	941.34	932.8	9.748	6.727	4.857	3.638	2.804
x1 = 0.8999	964.58	956.18	947.72	939.34	930.8	9.038	6.309	4.601	3.474	2.697
x1 = 1	962.57	954.16	945.74	937.35	928.85	8.301	5.86	4.323	3.295	2.58
